Legend:
NCI-60 cell line panel = assay: NCI-60 single-dose assay, whole panel; type: cell-based, human; conditions: summary over the panel
In short: (§1)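 Human cancer lines from nine tumour types in the NCI-60 panel were exposed to one compound dose, and cytotoxic activity was recorded for each line.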

[1] = tested on: K-562 (leukemia cell line); assay: NCI-60 single-dose assay; type: cell-based; conditions: Homo sapiens, K562, read-out: growth inhibition (GI%) and cytotoxicity (negative values)
Description: We first evaluated the cytotoxic activity of tricyclic-pyrrole carboxamides 1–20 using the NCI-60 cell line panel, representing nine different human cancers: leukemia, melanoma, and cancers of the lung, colon, central nervous system (CNS), ovary, kidney, prostate, and breast (the one-dose graph for compounds 1–20 is reported in Supplementary Materials, Figures S43–S62). Compounds 1, 5, 10, 11, 17, and 20 satisfied pre-determined threshold inhibition criteria in a minimum number of cell lines; therefore, they were also tested in the full five-dose assay (Figures S63–S68 in the Supplementary Materials).

[2] = tested on: RXF 393 (renal cancer cell line); assay: NCI-60 single-dose assay; type: cell-based, human; conditions: human
In short: as §1

[3] = tested on: MALME-3M (melanoma cell line); assay: NCI-60 single-dose assay; type: cell-based, human; conditions: human
In short: as §1

[4] = tested on: HT29 (colon cancer cell line); assay: NCI-60 single-dose assay; type: cell-based, human
In short: as §1

[5] = tested on: BT-549 (breast cancer cell line); assay: NCI-60 single-dose assay; type: cell-based, human
In short: as §1

[6] = tested on: MCF-7 (breast cancer cell line); assay: NCI-60 single-dose assay; type: cell-based, human
In short: as §1

[7] = tested on: UACC-257 (melanoma cell line); assay: NCI-60 single-dose assay; type: cell-based, human; conditions: human
In short: as §1

[8] = tested on: NCI-H460 (non-small cell lung cancer cell line); assay: NCI-60 single-dose assay; type: cell-based, human
In short: as §1

[9] = tested on: NCI-H522 (non-small cell lung cancer cell line); assay: NCI-60 single-dose assay; type: cell-based, human
In short: as §1

[10] = tested on: HCT-116 (colon cancer cell line); assay: NCI-60 single-dose assay; type: cell-based, human
In short: as §1

[11] = tested on: COLO 205 (colon cancer cell line); assay: NCI-60 single-dose assay; type: cell-based, human; conditions: human
In short: as §1

[12] = tested on: SK-MEL-28 (melanoma cell line); assay: NCI-60 single-dose assay; type: cell-based, human; conditions: human
In short: as §1

[13] = tested on: MDA-MB-435 (melanoma cell line); assay: NCI-60 single-dose assay; type: cell-based, human; conditions: Homo sapiens, MDA-MB-435, read-out: growth inhibition (GI%) and cytotoxicity (negative values)
In short: as §1

[14] = tested on: CAKI-1 (renal cancer cell line); assay: NCI-60 single-dose assay; type: cell-based, human
In short: as §1

[15] = tested on: SK-MEL-2 (melanoma cell line); assay: NCI-60 single-dose assay; type: cell-based, human; conditions: Homo sapiens, SK-MEL-2, read-out: growth inhibition (GI%) and cytotoxicity (negative values)
In short: as §1

[16] = tested on: NCI-H226 (non-small cell lung cancer cell line); assay: NCI-60 single-dose assay; type: cell-based, human
In short: as §1

[17] = tested on: HCC-2998 (colon cancer cell line); assay: NCI-60 single-dose assay; type: cell-based, human; conditions: human
In short: as §1

[18] = tested on: SN12C (renal cancer cell line); assay: NCI-60 single-dose assay; type: cell-based, human
In short: as §1

[19] = tested on: NCI-H23 (non-small cell lung cancer cell line); assay: NCI-60 single-dose assay; type: cell-based, human
In short: as §1

[20] = tested on: T-47D (breast cancer cell line); assay: NCI-60 single-dose assay; type: cell-based, human
In short: as §1

[21] = tested on: EKVX (non-small cell lung cancer cell line); assay: NCI-60 single-dose assay; type: cell-based, human
In short: as §1

[22] = tested on: UO-31 (renal cancer cell line); assay: NCI-60 single-dose assay; type: cell-based, human
In short: as §1

[23] = tested on: LOX IMVI (melanoma cell line); assay: NCI-60 single-dose assay; type: cell-based, human; conditions: LOX IMVI
In short: as §1

[24] = tested on: UACC-62 (melanoma cell line); assay: NCI-60 single-dose assay; type: cell-based, human; conditions: Homo sapiens, UACC-62, read-out: growth inhibition (GI%) and cytotoxicity (negative values)
In short: as §1

[25] = tested on: SW-620 (colon cancer cell line); assay: NCI-60 single-dose assay; type: cell-based, human
In short: as §1

[26] = tested on: RPMI-8226 (leukemia cell line); assay: NCI-60 single-dose assay; type: cell-based, human
In short: as §1

SR (leukemia cell line) = assay: NCI-60 single-dose assay; type: cell-based, human; conditions: human
In short: as §1

[27] = tested on: CCRF-CEM (leukemia cell line); assay: NCI-60 single-dose assay; type: cell-based, human
In short: as §1

[28] = tested on: HCT-15 (colon cancer cell line); assay: NCI-60 single-dose assay; type: cell-based, human
In short: as §1

[29] = tested on: KM12 (colon cancer cell line); assay: NCI-60 single-dose assay; type: cell-based, human
In short: as §1

[30] = tested on: HL-60(TB) (leukemia cell line); assay: NCI-60 single-dose assay; type: cell-based, human; conditions: human
[31] = tested on: 786-0 (renal cancer cell line); assay: NCI-60 single-dose assay; type: cell-based, human
In short: as §1

M14 (melanoma cell line) = assay: NCI-60 single-dose assay; type: cell-based, human; conditions: human
In short: as §1

[32] = tested on: MDA-MB-231/ATCC (breast cancer cell line); assay: NCI-60 single-dose assay; type: cell-based, human
In short: as §1

[33] = Homo sapiens, read-out: growth inhibition (GI%) and cytotoxicity (negative values)

O=C(NCCCN1CCN(c2ccccc2)CC1)c1cc2c([nH]1)-c1ccccc1CCC2 [Compound 10, N-(3-(4-Phenylpiperazin-1-yl)propyl)-1,4,5,6-tetrahydrobenzo[6,7]cyclohepta[1,2-b]pyrrole-2-carboxamide]
growth inhibition (GI%) reached against cancer cell lines of the NCI-60 panel (NCI-60 cell line panel): > 90%
inhibition at 10 µM [1]: 99.4%
growth inhibition (GI%) and cytotoxicity (negative values) [2]: −8.69%
growth inhibition (GI%) and cytotoxicity (negative values) [3]: −72.64%
growth inhibition (GI%) and cytotoxicity (negative values) ([4]; human): −2.47%
inhibition at 10 µM ([5]; Homo sapiens, BT-549, read-out: growth inhibition (GI%) and cytotoxicity (negative values)): < 60%
inhibition at 10 µM ([6]; Homo sapiens, MCF7, read-out: growth inhibition (GI%) and cytotoxicity (negative values), MCF-7, 10^−5 M): 80.2%
growth inhibition (GI%) and cytotoxicity (negative values) [7]: −8.50%
inhibition at 10 µM ([8]; Homo sapiens, NCI-H460, read-out: growth inhibition (GI%) and cytotoxicity (negative values)): 90.7%
inhibition at 10 µM ([9]; Homo sapiens, NCI-H522, read-out: growth inhibition (GI%) and cytotoxicity (negative values)): 71.4%
inhibition at 10 µM ([10]; Homo sapiens, HCT-116, read-out: growth inhibition (GI%) and cytotoxicity (negative values)): 95.7%
growth inhibition (GI%) and cytotoxicity (negative values) [11]: −58.03%
growth inhibition (GI%) and cytotoxicity (negative values) [12]: −29.31%
inhibition at 10 µM [13]: 75.1%
inhibition at 10 µM ([14]; Homo sapiens, CAKI-1, read-out: growth inhibition (GI%) and cytotoxicity (negative values)): 89.4%
inhibition at 10 µM [15]: 75%
inhibition at 10 µM ([16]; Homo sapiens, NCI-H226, read-out: growth inhibition (GI%) and cytotoxicity (negative values)): 75.2%
growth inhibition (GI%) and cytotoxicity (negative values) [17]: −9.32%
inhibition at 10 µM [18, 33]: < 60%
inhibition at 10 µM ([19]; Homo sapiens, NCI-H23, read-out: growth inhibition (GI%) and cytotoxicity (negative values)): < 60%
inhibition at 10 µM ([20]; Homo sapiens, T47D, read-out: growth inhibition (GI%) and cytotoxicity (negative values)): 65.8%
inhibition at 10 µM [21, 33]: 74.2%
inhibition at 10 µM ([22]; Homo sapiens, UO-31, read-out: growth inhibition (GI%) and cytotoxicity (negative values)): < 60%
inhibition at 10 µM [23, 33]: 95.2%
inhibition at 10 µM [24]: < 60%
inhibition at 10 µM ([25]; Homo sapiens, SW-620, read-out: growth inhibition (GI%) and cytotoxicity (negative values)): 80.1%
inhibition at 10 µM ([26]; Homo sapiens, RPMI-8226, read-out: growth inhibition (GI%) and cytotoxicity (negative values)): < 60%
growth inhibition (GI%) and cytotoxicity (negative values) (SR (leukemia cell line)): −19.75%
inhibition at 10 µM [27, 33]: 61.2%
inhibition at 10 µM ([28]; Homo sapiens, HCT-15, read-out: growth inhibition (GI%) and cytotoxicity (negative values)): 91.2%
inhibition at 10 µM ([29]; Homo sapiens, KM12, read-out: growth inhibition (GI%) and cytotoxicity (negative values)): 73.7%
growth inhibition (GI%) and cytotoxicity (negative values) [30]: −30.92%
inhibition at 10 µM ([31]; Homo sapiens, 786-0, read-out: growth inhibition (GI%) and cytotoxicity (negative values)): 68.7%
growth inhibition (GI%) and cytotoxicity (negative values) (M14 (melanoma cell line)): −59.25%
inhibition at 10 µM ([32]; Homo sapiens, MDA-MB-231, read-out: growth inhibition (GI%) and cytotoxicity (negative values)): < 60%

N-(3-(4-Benzylpiperazin-1-yl)propyl)-2-chloro-1,4,5,6-tetrahydrobenzo[6,7]cyclohepta[1,2-b]pyrrole-2-carboxamide [Compound 11]
growth inhibition (GI%) reached against cancer cell lines of the NCI-60 panel (NCI-60 cell line panel): > 90%
growth inhibition (GI%) and cytotoxicity (negative values) ([4]; HT29, 10^−5 M, single dose): 91.03%
growth inhibition (GI%) and cytotoxicity (negative values) ([5]; BT-549, 10^−5 M, single dose): – (GI% values < 60% and no cytotoxicity)
growth inhibition (GI%) and cytotoxicity (negative values) ([6]; MCF-7, 10^−5 M): 90.34%
growth inhibition (GI%) and cytotoxicity (negative values) ([8]; NCI-H460, 10^−5 M, single dose): 98.58%
growth inhibition (GI%) and cytotoxicity (negative values) ([9]; NCI-H522, 10^−5 M, single dose): 82.24%
growth inhibition (GI%) and cytotoxicity (negative values) ([10]; HCT-116, 10^−5 M, single dose): 96.84%
growth inhibition (GI%) and cytotoxicity (negative values) ([14]; CAKI-1, 10^−5 M, single dose): 91.53%
growth inhibition (GI%) and cytotoxicity (negative values) ([16]; NCI-H226, 10^−5 M, single dose): 64.87%
growth inhibition (GI%) and cytotoxicity (negative values) ([18]; 10^−5 M, single dose): – (GI% values < 60% and no cytotoxicity)
growth inhibition (GI%) and cytotoxicity (negative values) ([19]; NCI-H23, 10^−5 M, single dose): – (GI% values < 60% or no cytotoxicity)
growth inhibition (GI%) and cytotoxicity (negative values) ([20]; T-47D, 10^−5 M, single dose): 66.07%
growth inhibition (GI%) and cytotoxicity (negative values) ([21]; 10^−5 M, single dose): 70.83%
growth inhibition (GI%) and cytotoxicity (negative values) ([22]; UO-31, 10^−5 M, single dose): 63.12%
growth inhibition (GI%) and cytotoxicity (negative values) ([23]; 10^−5 M, single dose): 99.73%
growth inhibition (GI%) and cytotoxicity (negative values) ([25]; SW-620, 10^−5 M, single dose): 86.67%
growth inhibition (GI%) and cytotoxicity (negative values) ([26]; RPMI-8226, 10^−5 M, single dose): 92.04%
growth inhibition (GI%) and cytotoxicity (negative values) ([27]; 10^−5 M, single dose): 76.14%
growth inhibition (GI%) and cytotoxicity (negative values) ([28]; HCT-15, 10^−5 M, single dose): 84.78%
growth inhibition (GI%) and cytotoxicity (negative values) ([29]; KM12, 10^−5 M, single dose): 78.00%
growth inhibition (GI%) and cytotoxicity (negative values) ([31]; 786-0, 10^−5 M, single dose): 72.88%
growth inhibition (GI%) and cytotoxicity (negative values) ([32]; MDA-MB-231/ATCC, 10^−5 M, single dose): 61.71%
